Experimental findings from patent publication US20240166635A1, “AMINOHETEROARYL KINASE INHIBITORS” (Anrui Biomedical Technology (Guangzhou) Co.,Ltd., priority 2020, published 2024) are described below.

pIC50: −log10 of the molar value.

Assay type in all cases: biochemical
Assay [1] deals with CDK1/CyclinB (Homo sapiens (Human), UniProt P06493). The experiment in a line: CDK1/CyclinB kinase inhibitory activity (Caliper mobility shift). To be noted: read-out: CDK1/Cyclin B1 IC50.
The target in assay [2] is CDK9/CyclinT1 (Homo sapiens (Human), UniProt P50750). The experiment in a line: CDK9/CyclinT1 kinase inhibitory activity (Caliper mobility shift). To be noted: read-out: CDK9/Cyclin T1 IC50.
Sequence of CDK9/CyclinT1 (P50750 whole entry): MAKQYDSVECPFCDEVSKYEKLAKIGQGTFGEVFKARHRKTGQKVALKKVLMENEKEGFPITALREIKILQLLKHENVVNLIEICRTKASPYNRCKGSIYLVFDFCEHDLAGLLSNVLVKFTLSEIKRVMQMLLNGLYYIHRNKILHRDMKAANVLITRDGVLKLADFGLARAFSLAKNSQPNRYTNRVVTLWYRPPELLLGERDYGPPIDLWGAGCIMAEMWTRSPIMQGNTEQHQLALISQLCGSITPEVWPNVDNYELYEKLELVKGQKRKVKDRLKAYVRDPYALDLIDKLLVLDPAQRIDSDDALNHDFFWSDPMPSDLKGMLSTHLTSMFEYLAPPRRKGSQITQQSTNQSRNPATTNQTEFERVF
Sequence of CDK9/CyclinT1 (O60563 whole entry partner): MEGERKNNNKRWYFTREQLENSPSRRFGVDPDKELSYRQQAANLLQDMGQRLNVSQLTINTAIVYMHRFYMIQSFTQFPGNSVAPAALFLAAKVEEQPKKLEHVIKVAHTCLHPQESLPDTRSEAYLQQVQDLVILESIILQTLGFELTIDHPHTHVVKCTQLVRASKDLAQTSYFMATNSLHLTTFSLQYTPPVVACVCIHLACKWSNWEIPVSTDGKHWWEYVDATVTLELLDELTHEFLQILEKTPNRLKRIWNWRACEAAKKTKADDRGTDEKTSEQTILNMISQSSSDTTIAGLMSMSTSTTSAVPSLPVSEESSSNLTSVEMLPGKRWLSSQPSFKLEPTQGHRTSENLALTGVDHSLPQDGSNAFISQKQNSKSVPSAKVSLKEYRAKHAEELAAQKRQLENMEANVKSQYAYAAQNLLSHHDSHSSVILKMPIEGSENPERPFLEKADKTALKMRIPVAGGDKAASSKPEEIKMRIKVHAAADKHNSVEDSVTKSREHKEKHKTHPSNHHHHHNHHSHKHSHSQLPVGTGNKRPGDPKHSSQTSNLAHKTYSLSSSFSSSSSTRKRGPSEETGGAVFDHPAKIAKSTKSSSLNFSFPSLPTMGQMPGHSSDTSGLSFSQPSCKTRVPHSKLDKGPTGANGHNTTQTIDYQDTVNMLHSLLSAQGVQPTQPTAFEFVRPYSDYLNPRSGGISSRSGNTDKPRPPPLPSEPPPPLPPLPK
For assay [3], the target named is CDK2/CyclinE1 (Homo sapiens (Human), UniProt P24941). The experiment in a line: CDK2/CyclinE1 kinase inhibitory activity (Caliper mobility shift). To be noted: read-out: CDK2/Cyclin El IC50.

Sequence of CDK1/CyclinB (P06493 whole entry): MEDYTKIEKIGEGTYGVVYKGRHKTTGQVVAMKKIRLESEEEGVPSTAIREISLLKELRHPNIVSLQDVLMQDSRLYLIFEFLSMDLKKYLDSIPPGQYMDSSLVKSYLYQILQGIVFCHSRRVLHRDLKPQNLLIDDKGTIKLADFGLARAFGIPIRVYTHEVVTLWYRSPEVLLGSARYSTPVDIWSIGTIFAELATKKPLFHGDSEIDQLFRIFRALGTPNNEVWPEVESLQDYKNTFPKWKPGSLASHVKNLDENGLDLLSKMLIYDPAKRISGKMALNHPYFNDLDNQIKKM
Sequence of CDK1/CyclinB (P14635 whole entry partner): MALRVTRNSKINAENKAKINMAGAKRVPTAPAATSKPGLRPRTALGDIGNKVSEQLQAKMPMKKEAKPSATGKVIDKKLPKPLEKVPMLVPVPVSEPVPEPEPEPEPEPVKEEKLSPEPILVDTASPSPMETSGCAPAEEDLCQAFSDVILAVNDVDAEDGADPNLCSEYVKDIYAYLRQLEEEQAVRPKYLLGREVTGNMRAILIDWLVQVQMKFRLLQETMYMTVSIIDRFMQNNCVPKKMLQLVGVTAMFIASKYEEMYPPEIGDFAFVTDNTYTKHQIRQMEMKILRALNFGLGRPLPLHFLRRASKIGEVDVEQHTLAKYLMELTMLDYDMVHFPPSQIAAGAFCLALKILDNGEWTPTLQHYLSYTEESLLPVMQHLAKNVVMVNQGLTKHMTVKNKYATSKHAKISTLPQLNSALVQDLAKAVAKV

As to `CC(C)NS(=O)(=O)c1ccc(Nc2ncc(C#N)c(OC3CCCC3)n2)cc1` [Example 28], the results for the pIC50 in assay [1], in assay [2] and in assay [3] were 7.00 to 8.00, 6.00 to 7.00 and above 8.00, respectively.
As for `CS(=O)(=O)N1CCC(Nc2ncc(C(F)(F)F)c(OC3CCCCCC3O)n2)CC1` (single isomer, unassigned) [Example 121b], the pIC50 was 6.00 to 7.00 in assay [1], 6.00 to 7.00 in assay [2] and 7.00 to 8.00 in assay [3].
`CC(C)NS(=O)(=O)c1ccc(Nc2ncc(C#N)c(OC3CCCCC3O)n2)cc1` (single isomer, unassigned) [Example 30a]: the figures for the pIC50 in assay [1], in assay [2] and in assay [3] were 7.00 to 8.00, 6.00 to 7.00 and above 8.00, respectively.
For `N#Cc1cnc(Nc2ccc(S(N)(=O)=O)cc2)nc1O[C@@H]1CCCC[C@@H]1O` (single isomer, unassigned) [Example 2b, cis-4-((5-cyano-4-((2-hydroxycyclohexyl)oxy)pyrimidin-2-yl)amino)benzenesulfonamide], in that order: 6.00 to 7.00, at most 6.00 and 7.00 to 8.00.
For `Cn1cc(S(=O)(=O)N2CCC(Nc3ncc(Br)c(OC4CCCCC4O)n3)CC2)cn1` (single isomer, unassigned) [Example 144a], in that order: 6.00 to 7.00, at most 6.00 and 7.00 to 8.00.
Taken in the same sequence, the figures for `Cc1cnc(Nc2ccc(S(N)(=O)=O)cc2)nc1O[C@@H]1CCC[C@@H]1O` (single isomer, unassigned) [Example 132b, cis-4-((4-((2-hydroxycyclopentyl)oxy)-5-methylpyrimidin-2-yl)amino)benzenesulfonamide] were 6.00 to 7.00, 6.00 to 7.00 and 7.00 to 8.00.
As to `CC1CCCC1Oc1nc(Nc2ccc(S(N)(=O)=O)cc2)ncc1C#N` (stereo not drawn) [Example 11], the pIC50 is above 8.00 in assay [1], 7.00 to 8.00 in assay [2] and above 8.00 in assay [3].
`Cc1cnc(Nc2ccc(S(=O)(=O)NC3CC3)cc2)nc1OC1CCCC1O` (single isomer, unassigned) [Example 146b]: the pIC50 in assay [1] is 6.00 to 7.00; in assay [2], at most 6.00; in assay [3], 7.00 to 8.00.
Turning to `[2H]C([2H])([2H])NS(=O)(=O)c1ccc(Nc2ncc(Cl)c(OC3COCC3(C)O)n2)cc1` (single isomer, unassigned) [Example 140b], the results for the pIC50 in assay [1], in assay [2] and in assay [3] were at most 6.00, at most 6.00 and 7.00 to 8.00, respectively.
Turning to `NS(=O)(=O)c1ccc(Nc2ncc(Br)c(OC3CCCC3O)n2)cc1` (single isomer, unassigned) [Example 141b], the pIC50 in assay [1] was 7.00 to 8.00; in assay [2] it was 6.00 to 7.00; in assay [3], above 8.00.
For `NS(=O)(=O)c1ccc(Nc2ncc(C(F)(F)F)c(OC3CCOCC3O)n2)cc1` (single isomer, unassigned) [Example 114b], in that order: 6.00 to 7.00, 6.00 to 7.00 and 7.00 to 8.00.
For `CCS(=O)(=O)N1CCC(Nc2ncc(C#N)c(OC3CCCC3(C)O)n2)CC1` (single isomer, unassigned) [Example 36a], in that order: 6.00 to 7.00, at most 6.00 and 7.00 to 8.00.
For `[2H]C([2H])([2H])NS(=O)(=O)c1ccc(Nc2ncc(CC)c(OC3CCOCC3O)n2)cc1` (single isomer, unassigned) [Example 151b], in that order: at most 6.00, at most 6.00 and 7.00 to 8.00.
Regarding `CS(=O)(=O)N1CCC(Nc2ncc(C(F)(F)F)c(OC3CCCCC3O)n2)CC1` (single isomer, unassigned) [Example 120b], the pIC50 was 6.00 to 7.00 in assay [1], at most 6.00 in assay [2] and 7.00 to 8.00 in assay [3].
For `CC1(O)CCCCC1Oc1nc(Nc2ccc(S(N)(=O)=O)cc2)ncc1C#N` (single isomer, unassigned) [Example 24b], in that order: 7.00 to 8.00, 6.00 to 7.00 and 7.00 to 8.00.
Taken in the same sequence, the figures for `CC(C)NS(=O)(=O)c1ccc(Nc2ncc(C(F)(F)F)c(OC3CCCC3O)n2)cc1` (single isomer, unassigned) [Example 106b] were 7.00 to 8.00, 6.00 to 7.00 and above 8.00.
In the case of `NS(=O)(=O)c1ccc(Nc2ncc(C(F)(F)F)c(O[C@H]3[C@@H]4CC[C@@H](C4)[C@H]3O)n2)cc1` (single isomer, unassigned) [Example 113b], the pIC50 in assay [1] was 7.00 to 8.00; in assay [2] it was 6.00 to 7.00; in assay [3], above 8.00.
For `N#Cc1cnc(Nc2ccc(S(=O)(=O)NC3CC(F)(F)C3)cc2)nc1OC1CCCCC1O` (single isomer, unassigned) [Example 32b], in that order: 6.00 to 7.00, at most 6.00 and 7.00 to 8.00.
Taken in the same sequence, the figures for `C[C@@H]1C[C@@H](O)CCN1c1nc(Nc2ccc(S(N)(=O)=O)cc2)ncc1C#N` [Example 76] were 6.00 to 7.00, 6.00 to 7.00 and 7.00 to 8.00.
For `[2H]C([2H])([2H])NS(=O)(=O)c1ccc(Nc2ncc(CC)c(OC3CCOCC3(C)O)n2)cc1` (single isomer, unassigned) [Example 152b], in that order: at most 6.00, at most 6.00 and 7.00 to 8.00.
`CNS(=O)(=O)N1CCC(Nc2ncc(C(F)(F)F)c(OC3CCCCCC3O)n2)CC1` (single isomer, unassigned) [Example 123a]: the pIC50 in assay [1] is 6.00 to 7.00; in assay [2], 6.00 to 7.00; in assay [3], 7.00 to 8.00.
As for `CC(C)NS(=O)(=O)c1ccc(Nc2ncc(C#N)c(OC3CCC(O)C3)n2)cc1` (single isomer, unassigned) [Example 29b], the pIC50 in assay [1] is 7.00 to 8.00; in assay [2], 6.00 to 7.00; in assay [3], above 8.00.
Taken in the same sequence, the figures for `C[C@@H]1CC[C@H](O)CN1c1nc(Nc2ccc(S(N)(=O)=O)cc2)ncc1C#N` [Example 77] were 7.00 to 8.00, 7.00 to 8.00 and above 8.00.
Taken in the same sequence, the figures for `CC1CCCC(O)C1Oc1nc(Nc2ccc(S(N)(=O)=O)cc2)ncc1C(F)(F)F` (single isomer, unassigned) [Example 112b] were 6.00 to 7.00, 6.00 to 7.00 and above 8.00.
Taken in the same sequence, the figures for `NS(=O)(=O)c1ccc(Nc2ncc(C(F)(F)F)c(OC3CCCCCC3O)n2)cc1` (single isomer, unassigned) [Example 118b] were 7.00 to 8.00, 7.00 to 8.00 and above 8.00.
`CNS(=O)(=O)c1ccc(Nc2ncc(C(F)(F)F)c(OC3CCOCC3O)n2)cc1` (single isomer, unassigned) [Example 116b]: the pIC50 in assay [1] is 6.00 to 7.00; in assay [2], at most 6.00; in assay [3] it was 7.00 to 8.00.
For `NS(=O)(=O)c1ccc(Nc2ncc(C(F)(F)F)c(OC3COCCC3O)n2)cc1` (single isomer, unassigned) [Example 115b], in that order: 6.00 to 7.00, 6.00 to 7.00 and 7.00 to 8.00.
For `[2H]C([2H])([2H])NS(=O)(=O)c1ccc(Nc2ncc(C(F)(F)F)c(OC3CCCC3O)n2)cc1` (single isomer, unassigned) [Example 109b], in that order: 6.00 to 7.00, 6.00 to 7.00 and 7.00 to 8.00.
Taken in the same sequence, the figures for `CC1(O)CCCC1Oc1nc(Nc2ccc(S(N)(=O)=O)cc2)ncc1C#N` (single isomer, unassigned) [Example 23b] were 6.00 to 7.00, 6.00 to 7.00 and 7.00 to 8.00.
As to `[2H]C([2H])([2H])NS(=O)(=O)c1ccc(Nc2ncc(CC)c(OC3CCOCC3(C)O)n2)cc1` (single isomer, unassigned) [Example 152a], the pIC50 in assay [1] is above 8.00; in assay [2], 7.00 to 8.00; in assay [3], above 8.00.
With `CC(C)NS(=O)(=O)c1ccc(Nc2ncc(C#N)c(OC3CCCC3(C)O)n2)cc1` (single isomer, unassigned) [Example 35b], the pIC50 in assay [1] is 7.00 to 8.00; in assay [2], 6.00 to 7.00; in assay [3], above 8.00.
For the compound `C[C@]1(O)CCC[C@H]1Oc1nc(NC2CCN(S(C)(=O)=O)CC2)ncc1C#N` (relative stereo) [Example 3a, cis-4-((2-hydroxy-2-methylcyclopentyl)oxy)-2-((1-(methylsulfonyl)piperidin-4-yl)amino)pyrimidine-5-carbonitrile], the pIC50 in assay [1] was 6.00 to 7.00; in assay [2] it was at most 6.00; in assay [3], 7.00 to 8.00.
Taken in the same sequence, the figures for `O=S(=O)(NC1CC1)c1ccc(Nc2ncc(C(F)(F)F)c(OC3CCCC3O)n2)cc1` (single isomer, unassigned) [Example 107b] were 7.00 to 8.00, 6.00 to 7.00 and above 8.00.
As for `[2H]C([2H])([2H])NS(=O)(=O)c1ccc(Nc2ncc(C#N)c(OC3CCCOCC3)n2)cc1` (single isomer, unassigned) [Example 33b], the results for the pIC50 in assay [1], in assay [2] and in assay [3] were 6.00 to 7.00, at most 6.00 and above 8.00, respectively.
Taken in the same sequence, the figures for `N#Cc1cnc(Nc2ccc(S(N)(=O)=O)cc2)nc1OC1CCCCCC1O` (single isomer, unassigned) [Example 22b] were 7.00 to 8.00, 6.00 to 7.00 and above 8.00.
For `N#Cc1cnc(Nc2ccc(S(N)(=O)=O)cc2)nc1N1CCC[C@@H](CO)C1` [Example 79], the pIC50 is 6.00 to 7.00 in assay [1], 6.00 to 7.00 in assay [2] and 7.00 to 8.00 in assay [3].
As for `[2H]C1([2H])CC(O)C(Oc2nc(Nc3ccc(S(=O)(=O)NC([2H])([2H])[2H])cc3)ncc2C(F)(F)F)C1` (single isomer, unassigned) [Example 110b], the pIC50 in assay [1] was 6.00 to 7.00; in assay [2], 6.00 to 7.00; in assay [3], above 8.00.
